Source: patent US10851053B2, “Chemical compounds” (GlaxoSmithKline Intellectual Property Development Limited, priority 2016, dated 2020)

What follows are compounds tested on ATF4 translation (ATF4 pathway), SH-SY5Y-ATF4-NanoLuc cells (assay: ATF4 cell based assay (ATF4 5'-UTR NanoLuc luciferase reporter, Thapsigargin induced cellular stress)). Details: SH-SY5Y-ATF4-NanoLuc cells challenged with Thapsigargin for 14-18 hours; average of two or more experimental runs; read-out: average ATF4 pathway inhibitory activity (IC50).
Source text: The ATF4 reporter assay measures the effect of Thapsigargin induced cellular stress on ATF4 expression. For this reporter assay, a stable cell line was created by transfecting SH-SY5Y cells with a plasmid containing the NanoLuc® luciferase gene fused to the 5′-UTR of ATF4, under the control of the CMV promoter. The ATF4 5′-UTR contains two open reading frames which mediate the cellular stress-dependent translation of the reporter gene. Clones stably expressing the reporter construct were isolated and selected based on the luminescence response to thapsigargin and inhibition of this signal by test compounds. Briefly, SH-SY5Y-ATF4-NanoLuc cells were challenged with Thapsigargin for 14-18 hours to determine the stress effect with or without test compounds.
Cells were propagated in growth media consisting of 90% DMEM F12 (InVitrogen #11320-033), 10% Fetal Bovine Serum (Gibco #10438-026), 5 mM Glutamax (Gibco #35050-061), 5 mM Hepes, (Gibco #15630-080), and 0.5 mg/ml Geneticin (Gibco #10131-027). Cells were prepared for the assay by removing all media from cells, washing the plated cells with phosphate buffered saline, and detached by adding a solution comprised of 10% Tryple express solution (InVitrogen12604-021) and 90% enzyme-free cell dissociation buffer HANKS base (Gibco 13150-016). The trypsin was deactivated by adding assay media comprised of 90% phenol-red free DMEM F12 (InVitrogen, 11039), 10% Fetal Bovine Serum (Gibco #10438-026), (5 mM Glutamax (Gibco #35050-061), 5 mM Hepes, (Gibco #15630-080), and 0.5 mg/ml Geneticin (Gibco #10131-027). Suspended cells were spun down at 300 g for 5 min, the supernatant was removed and the cell pellet was suspended in warm media (30-37° C.) comprised as above at (1e6 cell/ml).
Assay plates were prepared by adding 250 nL of compound stock solution in 100% DMSO to each well, followed by dispensing 20 microliters/well cell suspension to deliver 15-20 k cell/well. Cells were incubated for 1 hour at 37° C. Then, 5 μL of 1.5 μM or 1 μM of Thapsigargin (final concentration: 200-300 nM) was added to each well of cells. Assay plates containing cells were incubated for 14-18 hours at 37° C.
The measurement of luciferase produced by the ATF4 constructs was measured as follows. Aliquots of the Nano-Glo reagent (Nano-Glo® Luciferase Assay Substrate, Promega, N113, Nano-Glo® Luciferase Assay Buffer, Promega, N112 (parts of Nano-Glo® Luciferase Assay System, N1150) were brought to room temperature, the substrate and buffer were mixed according to manufacturer's instructions. The cell plates were equilibrated to room temperature. 25 microliters/well of the mixed Nano-Glo reagent were dispensed into assay wells and pulse spun to settle contents and the plate was sealed with film. The plates were incubated at room temperature for 1 hour before detecting luminescence on an Envision plate reader.
Compounds of the invention are tested for activity against ATF4 translation in the above assay.

Structure (SMILES) | IC50 [nM]
O=C(COc1ccc(Cl)cc1)NCC1CCN(C(=O)N2CCc3cc(Cl)ccc3C2)C1 (centres unmarked) [Example 24, N-((1-(6-chloro-1,2,3,4-tetrahydroisoquinoline-2-carbonyl)pyrrolidin-3-yl)methyl)-2-(4-chlorophenoxy)acetamide] | 101 to 1000
O=C(COc1ccc(Cl)cc1)NC1CCN(C(=O)COc2ccc(Cl)cc2)C1 (centres unmarked) [Example 7, 2-(4-chlorophenoxy)-N-(1-(2-(4-chlorophenoxy)acetyl)pyrrolidin-3-yl)acetamide] | 1000 to 10000
O=C(COc1ccc(Cl)cc1)N[C@H]1[C@@H]2CN(CCCOc3ccc(Cl)nc3)C[C@@H]21 [Example 65, 2-(4-chlorophenoxy)-N-((1R,5S,6s)-3-(3-((6-chloropyridin-3-yl)oxy)propyl)-3-azabicyclo[3.1.0]hexan-6-yl)acetamide] | 101 to 1000
O=C(COc1ccc(Cl)cc1)NCC1(F)CCN(CCOc2ccc(Cl)cc2)C1 (centres unmarked) [Example 42, 2-(4-chlorophenoxy)-N-((1-(2-(4-chlorophenoxy)ethyl)-3-fluoropyrrolidin-3-yl)methyl)acetamide] | 101 to 1000
O=C(NCC1CCN(C(=O)COc2ccc(Cl)cc2)C1)C1Cc2cc(Cl)ccc2O1 (centres unmarked) [Example 18, 5-chloro-N-((1-(2-(4-chlorophenoxy)acetyl)pyrrolidin-3-yl)methyl)-2,3-dihydrobenzofuran-2-carboxamide] | 101 to 1000
O=C(COc1ccc(Cl)cc1)N[C@H]1[C@@H]2CN(CC(F)COc3ccc(Cl)cc3)C[C@@H]21 (stereo partly drawn) [Example 78, 2-(4-chlorophenoxy)-N-((1R,5S,6s)-3-(3-(4-chlorophenoxy)-2-fluoropropyl)-3-azabicyclo[3.1.0]hexan-6-yl)acetamide] | < 100
O=C(COc1ccc(Cl)cc1)NCC1CN(CCCOc2ccc(Cl)cc2)CC1O (centres unmarked) [Example 80, 2-(4-chlorophenoxy)-N-((1-(3-(4-chlorophenoxy)propyl)-4-hydroxypyrrolidin-3-yl)methyl)acetamide] | < 100
O=C(COc1ccc(Cl)cc1)NC1CCC2(CC1)CCN(C(=O)COc1ccc(Cl)cc1)C2 (centres unmarked) [Example 23, 2-(4-chlorophenoxy)-N-(2-(2-(4-chlorophenoxy)acetyl)-2-azaspiro[4.5]decan-8-yl)acetamide] | < 100
O=C(COc1ccc(Cl)cc1)NCC1CCN(CCCOc2ccc(Cl)cc2F)C1 (centres unmarked) [Example 62, N-((1-(3-(4-chloro-2-fluorophenoxy)propyl)pyrrolidin-3-yl)methyl)-2-(4-chlorophenoxy)acetamide] | < 100
O=C(COc1ccc(Cl)cc1)NCCC1CCN(C(=O)COc2ccc(Cl)cc2)C1 (centres unmarked) [Example 16, 2-(4-chlorophenoxy)-N-(2-(1-(2-(4-chlorophenoxy)acetyl)pyrrolidin-3-yl)ethyl)acetamide] | 101 to 1000
O=C(COc1ccc(Cl)cc1)NCC1CCN(CCCOc2ccc(C(F)(F)F)cc2)C1 (centres unmarked) [Example 63, 2-(4-chlorophenoxy)-N-((1-(3-(4-(trifluoromethyl)phenoxy)propyl)pyrrolidin-3-yl)methyl)acetamide] | 101 to 1000
O=C(COc1ccc(Cl)cc1)NC[C@H]1CCN(C(=O)COc2ccc(Cl)cc2)C1 [Example 30] | 252
O=C(COc1ccc(Cl)cc1)NCC1CCN(C(=O)C2CCc3cc(Cl)ccc3O2)C1 (centres unmarked) [Example 8, N-((1-(6-chlorochroman-2-carbonyl)pyrrolidin-3-yl)methyl)-2-(4-chlorophenoxy)acetamide] | < 100
O=C(COc1ccc(Cl)cc1)N[C@H]1[C@@H]2CN(C(=O)COc3ccc(Cl)cc3)C[C@@H]21 [Example 31, 2-(4-chlorophenoxy)-N-((1R,5S,6s)-3-(2-(4-chlorophenoxy)acetyl)-3-azabicyclo[3.1.0]hexan-6-yl)acetamide] | 101 to 1000
O=C(COc1ccc(Cl)cc1)N[C@H]1[C@@H]2CN(CCCOc3ccc(Cl)cc3)C[C@@H]21 [Example 28, 2-(4-chlorophenoxy)-N-((1R,5S,6s)-3-(3-(4-chlorophenoxy)propyl)-3-azabicyclo[3.1.0]hexan-6-yl)acetamide] | < 100

Next, values leading:

IC50 [nM] | Structure (SMILES)
< 100 | O=C(COc1ccc(Cl)cn1)N[C@H]1[C@@H]2CN(CCCOc3ccc(Cl)cc3)C[C@@H]21 [Example 52, N-((1R,5S,6s)-3-(3-(4-chlorophenoxy)propyl)-3-azabicyclo[3.1.0]hexan-6-yl)-2-((5-chloropyridin-2-yl)oxy)acetamide]
< 100 | O=C(NCC1CCN(C(=O)COc2ccc(Cl)cc2)C1)C1CCc2cc(Cl)ccc2O1 (centres unmarked) [Example 22, 6-chloro-N-((1-(2-(4-chlorophenoxy)acetyl)pyrrolidin-3-yl)methyl)chroman-2-carboxamide]
< 100 | O=C(COc1ccc(Cl)cc1)NCC1CC(=O)N(CCOc2ccc(Cl)cc2)C1 (centres unmarked) [Example 3, 2-(4-chlorophenoxy)-N-((1-(2-(4-chlorophenoxy)ethyl)-5-oxopyrrolidin-3-yl)methyl)acetamide]
101 to 1000 | O=C(COc1ccc(Cl)cc1)NCC1(F)CCN(CCCOc2ccc(Cl)cc2)C1 (centres unmarked) [Example 60, 2-(4-chlorophenoxy)-N-((1-(3-(4-chlorophenoxy)propyl)-3-fluoropyrrolidin-3-yl)methyl)acetamide]
1000 to 10000 | O=C(COc1ccc(Cl)cc1)NCC1CCN(C(=O)COc2ccc(Cl)nc2)C1 (racemic) [Example 20, 2-(4-chlorophenoxy)-N-((1-(2-((6-chloropyridin-3-yl)oxy)acetyl)pyrrolidin-3-yl)methyl)acetamide]
101 to 1000 | O=C(COc1ccc(Cl)cc1)NOC1CCN(C(=O)C2CC2c2ccc(Cl)cc2)C1 (centres unmarked) [Example 34, 2-(4-chlorophenoxy)-N-((1-(2-(4-chlorophenyl)cyclopropane-1-carbonyl)pyrrolidin-3-yl)oxy)acetamide]
1000 to 10000 | O=C(COc1ccc(Cl)cc1)NCC1CCN(C(=O)COc2ccc(Cl)nc2)C1 (single isomer, unassigned) [Example 11, 2-(4-chlorophenoxy)-N-((1-(2-((6-chloropyridin-3-yl)oxy)acetyl)pyrrolidin-3-yl)methyl)acetamide]
101 to 1000 | O=C(COc1ccc(Cl)cc1)NCC1(F)CCN(C(=O)COc2ccc(Cl)cc2)C1 (centres unmarked) [Example 36, 2-(4-chlorophenoxy)-N-((1-(2-(4-chlorophenoxy)acetyl)-3-fluoropyrrolidin-3-yl)methyl)acetamide]
< 100 | O=C(COc1ccc(Cl)cc1)NCC1CCN(C(=O)C2CC2c2ccc(Cl)cc2)C1 (centres unmarked) [Example 40, 2-(4-chlorophenoxy)-N-((1-(2-(4-chlorophenyl)cyclopropanecarbonyl)pyrrolidin-3-yl)methyl)acetamide]
101 to 1000 | O=C(COc1ccc(Cl)cc1)NCC1CC(=O)N(CCCOc2ccc(Cl)cc2)C1 (centres unmarked) [Example 81, 2-(4-chlorophenoxy)-N-((1-(3-(4-chlorophenoxy)propyl)-5-oxopyrrolidin-3-yl)methyl)acetamide]
101 to 1000 | O=C(COc1ccc(Cl)cc1)NCC1CCN(CCCOc2ccc(F)cc2)C1 (centres unmarked) [Example 49, 2-(4-chlorophenoxy)-N-((1-(3-(4-fluorophenoxy)propyl)pyrrolidin-3-yl)methyl)acetamide]
< 100 | O=C(COc1ccc(C(F)(F)F)cc1)NCC1CCN(CCCOc2ccc(Cl)cc2)C1 (centres unmarked) [Example 45, N-((1-(3-(4-chlorophenoxy)propyl)pyrrolidin-3-yl)methyl)-2-(4-(trifluoromethyl)phenoxy)acetamide]

Same assay, conditions: read-out: average ATF4 pathway inhibitory activity (IC50)

Structure (SMILES) | IC50 [nM]
O=C(COc1ccc(Cl)cc1)NC[C@H]1CCN(C(=O)COc2ccc(Cl)cc2)C1 [Example 30] | 101 to 1000
O=C(COc1ccc(Cl)cc1)NCC1CCN(C(=O)COc2ccc(Cl)cc2)C1 (centres unmarked) [Example 1, 2-(4-chlorophenoxy)-N-((1-(2-(4-chlorophenoxy)acetyl)pyrolidin-3-yl)methyl)acetamide] | 101 to 1000
